Measured values from PubChem BioAssay (NCI).
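Growth conditions: 96-well plates. Treatment: test compound, 48 hours, 5 concentrations. Analysis: linear interpolation between bracketing concentrations; unreached endpoints set to highest concentration. TGI is the concentration that stops growth completely.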

Experiments:
Assay in all cases: growth of human tumour cells (NCI), 48 h
786-0 renal = test system: 786-0 renal
A549 NSCLC = test system: A549 NSCLC
ACHN renal = test system: ACHN renal
BT-549 breast = test system: BT-549 breast
CAKI-1 renal = test system: CAKI-1 renal
CCRF-CEM leukemia = test system: CCRF-CEM leukemia
COLO 205 colon = test system: COLO 205 colon
DU-145 prostate = test system: DU-145 prostate
EKVX NSCLC = test system: EKVX NSCLC
HCC-2998 colon = test system: HCC-2998 colon
HCT-116 colon = test system: HCT-116 colon
HCT-15 colon = test system: HCT-15 colon
HL-60(TB) leukemia = test system: HL-60(TB) leukemia
HOP-62 NSCLC = test system: HOP-62 NSCLC
HS 578T breast = test system: HS 578T breast
HT29 colon = test system: HT29 colon
IGROV1 ovarian = test system: IGROV1 ovarian
K-562 leukemia = test system: K-562 leukemia
KM12 colon = test system: KM12 colon
LOX IMVI melanoma = test system: LOX IMVI melanoma
M14 melanoma = test system: M14 melanoma
MCF7 breast = test system: MCF7 breast
MDA-MB-231 breast = test system: MDA-MB-231 breast
MDA-MB-435 = test system: MDA-MB-435
MDA-N = test system: MDA-N
MOLT-4 leukemia = test system: MOLT-4 leukemia
NCI-H226 lung = test system: NCI-H226 lung
NCI-H23 lung = test system: NCI-H23 lung
NCI-H460 lung = test system: NCI-H460 lung
NCI-H522 lung = test system: NCI-H522 lung
NCI/ADR-RES ovarian = test system: NCI/ADR-RES ovarian
OVCAR-3 ovarian = test system: OVCAR-3 ovarian
OVCAR-4 ovarian = test system: OVCAR-4 ovarian
OVCAR-5 ovarian = test system: OVCAR-5 ovarian
OVCAR-8 ovarian = test system: OVCAR-8 ovarian
PC-3 prostate = test system: PC-3 prostate
RPMI-8226 leukemia = test system: RPMI-8226 leukemia
RXF 393 renal = test system: RXF 393 renal
SF-268 CNS = test system: SF-268 CNS
SF-295 CNS = test system: SF-295 CNS
SF-539 CNS = test system: SF-539 CNS
SK-MEL-2 melanoma = test system: SK-MEL-2 melanoma
SK-MEL-28 melanoma = test system: SK-MEL-28 melanoma
SK-MEL-5 melanoma = test system: SK-MEL-5 melanoma
SK-OV-3 ovarian = test system: SK-OV-3 ovarian
SN12C renal = test system: SN12C renal
SNB-19 CNS = test system: SNB-19 CNS
SW-620 colon = test system: SW-620 colon
T-47D breast = test system: T-47D breast
TK-10 renal = test system: TK-10 renal
U251 CNS = test system: U251 CNS
UACC-257 melanoma = test system: UACC-257 melanoma
UACC-62 melanoma = test system: UACC-62 melanoma
UO-31 renal = test system: UO-31 renal
HOP-92 NSCLC = test system: HOP-92 NSCLC
MALME-3M melanoma = test system: MALME-3M melanoma
SNB-75 CNS = test system: SNB-75 CNS
SR leukemia = test system: SR leukemia

Measured: TGI

O=C1Oc2ccccc2C(=O)/C1=C/N1C(=O)CNC1=S
> 100 µM: 786-0 renal | A549 NSCLC | ACHN renal | BT-549 breast | CAKI-1 renal | CCRF-CEM leukemia | COLO 205 colon | DU-145 prostate | EKVX NSCLC | HCC-2998 colon | HCT-116 colon | HCT-15 colon | HL-60(TB) leukemia | HOP-62 NSCLC | HS 578T breast | HT29 colon | IGROV1 ovarian | K-562 leukemia | KM12 colon | LOX IMVI melanoma | M14 melanoma | MCF7 breast | MDA-MB-231 breast | MDA-MB-435 | MDA-N | MOLT-4 leukemia | NCI-H226 lung | NCI-H23 lung | NCI-H460 lung | NCI-H522 lung | NCI/ADR-RES ovarian | OVCAR-3 ovarian | OVCAR-4 ovarian | OVCAR-5 ovarian | OVCAR-8 ovarian | PC-3 prostate | RPMI-8226 leukemia | RXF 393 renal | SF-268 CNS | SF-295 CNS | SF-539 CNS | SK-MEL-2 melanoma | SK-MEL-28 melanoma | SK-MEL-5 melanoma | SK-OV-3 ovarian | SN12C renal | SNB-19 CNS | SW-620 colon | T-47D breast | TK-10 renal | U251 CNS | UACC-257 melanoma | UACC-62 melanoma | UO-31 renal

O=C(O)CCCCC1CCSS1 (configuration not stated)
> 100 µM: 786-0 renal | A549 NSCLC | ACHN renal | CAKI-1 renal | CCRF-CEM leukemia | COLO 205 colon | DU-145 prostate | EKVX NSCLC | HCC-2998 colon | HCT-116 colon | HCT-15 colon | HL-60(TB) leukemia | HOP-62 NSCLC | HOP-92 NSCLC | HS 578T breast | HT29 colon | IGROV1 ovarian | K-562 leukemia | KM12 colon | LOX IMVI melanoma | M14 melanoma | MALME-3M melanoma | MCF7 breast | MDA-MB-231 breast | MDA-MB-435 | MDA-N | MOLT-4 leukemia | NCI-H226 lung | NCI-H23 lung | NCI-H460 lung | NCI-H522 lung | NCI/ADR-RES ovarian | OVCAR-3 ovarian | OVCAR-4 ovarian | OVCAR-5 ovarian | OVCAR-8 ovarian | PC-3 prostate | RPMI-8226 leukemia | SF-268 CNS | SF-295 CNS | SF-539 CNS | SK-MEL-2 melanoma | SK-MEL-28 melanoma | SK-MEL-5 melanoma | SNB-19 CNS | SNB-75 CNS | SR leukemia | SW-620 colon | T-47D breast | TK-10 renal | U251 CNS | UACC-257 melanoma | UO-31 renal
